Key:
Kynureninase [1] = target: T1, Kynureninase (Rattus norvegicus, UniProt P70712); experiment: Compound was tested for the binding affinity against kynureninase in rat liver
T1 sequence (P70712 whole entry): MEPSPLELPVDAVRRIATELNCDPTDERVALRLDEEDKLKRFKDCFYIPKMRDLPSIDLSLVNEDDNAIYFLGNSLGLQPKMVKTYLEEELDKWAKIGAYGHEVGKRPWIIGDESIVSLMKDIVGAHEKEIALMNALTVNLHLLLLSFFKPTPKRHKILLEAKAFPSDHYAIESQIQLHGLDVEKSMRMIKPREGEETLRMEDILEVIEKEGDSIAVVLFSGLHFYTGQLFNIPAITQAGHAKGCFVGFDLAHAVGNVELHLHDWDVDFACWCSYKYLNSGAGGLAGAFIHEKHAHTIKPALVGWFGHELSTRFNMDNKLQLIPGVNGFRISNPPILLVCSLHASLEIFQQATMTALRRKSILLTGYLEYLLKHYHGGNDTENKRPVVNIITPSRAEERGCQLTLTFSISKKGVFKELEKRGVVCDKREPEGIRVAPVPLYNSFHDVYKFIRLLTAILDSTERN

Kynureninase [2] = target: T1, Kynureninase; experiment: Compound was tested for the inhibition of mammalian kynureninase in rat liver; format: tissue-based

Compound `Nc1ccccc1S(=O)(=O)CC(N)C(=O)O` (stereo not given) has a Ki (Kynureninase [1]) of 18 µM and an IC50 (Kynureninase [2]) of 36 µM.
With `Cc1ccc(N)c(S(=O)(=O)CC(N)C(=O)O)c1` (stereo not given) the IC50 (Kynureninase [2]) was 11 µM.
Work on `Nc1c(F)cccc1S(=O)(=O)CC(N)C(=O)O` (stereo not given) yielded an IC50 (Kynureninase [2]) of 20 µM.
`COc1cccc(S(=O)(=O)CC(N)C(=O)O)c1N` (stereo not given) was tested, and the IC50 (Kynureninase [2]) was 29 µM.

From ChEMBL document CHEMBL1130617, “S-aryl cysteine S,S-dioxides as inhibitors of mammalian kynureninase” (Bioorg Med Chem Lett, 1998)
